In PMC11855827, “High-Throughput Screening of Five Compound Libraries for Anthelmintic Activity and Toxicity Leads to the Discovery of Two Flavonoid Compounds” (International Journal of Molecular Sciences, 2025) one finds inhibition data, which are given here for 49 compounds.

Where two headings read alike, the source gives them in different places.

In this test the test system is C. elegans. Nature of the test: microbe, parasite or virus in culture. Conditions: Caenorhabditis elegans.
Where [1] appears, read: 0 h, read-out: Percentage of motility inhibition 0 h, Table S2, C. elegans SS assay, 110 μM, 0 h, averages of 4 data points.
The mark [2] stands for this setting: 24 h, read-out: Percentage of motility inhibition 24 h, Table S2, C. elegans SS assay, 110 μM, 24 h, averages of 4 data points.
[3] abbreviates: 0 h, read-out: Percentage of motility inhibition 0 h.
Where [4] appears, read: 24 h, read-out: Percentage of motility inhibition 24 h.

A word on the inhibition: it is the relative decrease from the control value, in per cent. For the compound `O=C(CO)[C@@H](O)[C@H](O)[C@H](O)CO` [Fructose], the inhibition at 110 µM worked out at 0% under setting [1] and 3% under setting [2].

In the case of `O=C(OCC1=C[C@@H](O)[C@@H]2C=CO[C@@H](O[C@@H]3O[C@H](CO)[C@@H](O)[C@H](O)[C@H]3O)[C@H]12)c1ccc(O)cc1` [Agnuside], the inhibition at 110 µM under setting [1] was determined as 2% and the inhibition at 110 µM under setting [2] was found to be 15%.

On to `C[C@H]1[C@H](C)CC[C@]2(C(=O)O)CC[C@]3(C)C(=CC[C@@H]4[C@@]5(C)C[C@@H](O)[C@H](O)C(C)(C)[C@@H]5CC[C@]43C)[C@H]12` [Corosolic acid], for which the inhibition at 110 µM runs as follows: under setting [1], 23%; under setting [2], 34%.

Regarding `O=[N+]([O-])c1cn2c(n1)OC[C@@H](OCc1ccc(OC(F)(F)F)cc1)C2` [PA‐824], the inhibition at 110 µM under setting [1] was 33% and the inhibition at 110 µM under setting [2] worked out at 0%.

Turning to `COc1ccc(-c2coc3cc(O)c(OC)c(O)c3c2=O)cc1` [Irisolidone], the inhibition at 110 µM under setting [1] was 0% and the inhibition at 110 µM under setting [2] stood at 0%.

With `C=C1C(=O)[C@@]23[C@H](O)C[C@@H]4C(C)(C)C(=O)CC[C@@]4(C)[C@@H]2CC[C@@H]1[C@H]3O` [Glaucocalyxin A], the inhibition at 110 µM stood at 0% under setting [1] and 7% under setting [2].

For `CC[C@H]1C[C@@H]2CN3CCc4c([nH]c5ccccc45)[C@](C(=O)OC)(C2)[C@H]13` [Coronaridine], the inhibition at 110 µM reads like this: under setting [1], 0%; under setting [2], 5%.

In the case of `COc1ncnc(NS(=O)(=O)c2ccc(N)cc2)c1OC` [Sulfadoxine], the inhibition at 110 µM by setting is: under setting [1], 18%; under setting [2], 5%.

Consider `C[C@@H]1[C@H]2[C@H](O[C@@H]3O[C@H](CO)[C@@H](O)[C@H](O)[C@H]3O)OC=C(C(=O)O)[C@H]2C[C@@H]1O` [Loganic acid], for which the inhibition at 110 µM by setting is: under setting [1], 28%; under setting [2], 29%.

Consider `COc1ccc2c(c1)CC=C(CO)c1cc3c(cc1-2)OCO3` [Tenuifolin], for which the inhibition at 110 µM came to 0% under setting [1] and 1% under setting [2].

`CCOC(=O)C1=C[C@]2(CC)CCCN3CCc4c(n1c1ccccc41)[C@@H]32` [Vinpocetine]: under setting [1], the inhibition at 110 µM amounted to 0%.

For the compound `O=C(/C=C/C=C/c1ccc2c(c1)OCO2)N1CCCCC1` [Piperine], the inhibition at 110 µM is 0% under setting [1] and 21% under setting [2].

`O=c1cc(-c2ccc(O)cc2)oc2cc(O)cc(O)c12` [Apigenin]: the inhibition at 110 µM is, setting by setting: under setting [1], 12%; under setting [2], 3%.

With `Clc1ccccc1C(c1ccccc1)(c1ccccc1)n1ccnc1` [Clotrimazole], the inhibition at 110 µM reads like this: under setting [1], 6%; under setting [2], 0%.

`Cc1cc2cc3c(C)cc(=O)oc3c(C)c2o1` [Trioxsalen]: the inhibition at 110 µM runs as follows: under setting [1], 6%; under setting [2], 7%.

`Cc1ncc([N+](=O)[O-])n1CCO` [Metronidazole]: the inhibition at 110 µM is, setting by setting: under setting [1], 34%; under setting [2], 14%.

On to `CCCCC/C=C/C(=O)CCc1ccc(O)c(OC)c1` [Shogaol], for which the inhibition at 110 µM reads like this: under setting [1], 0%; under setting [2], 5%.

For the compound `C[C@H]1COc2c(N3CCN(C)CC3)c(F)cc3c(=O)c(C(=O)O)cn1c23` [Levofloxacin], the inhibition at 110 µM by setting is: under setting [1], 9%; under setting [2], 10%.

With `O=C(O)c1c[nH]c2ccccc12` [Indole‐3‐carboxylic acid], the inhibition at 110 µM by setting is: under setting [1], 0%; under setting [2], 0%.

For the compound `O=C(O)c1cccnc1` [Niacin], the inhibition at 110 µM is, setting by setting: under setting [1], 0%; under setting [2], 14%.

As to `CNCc1ccccc1` [N‐Methylbenzylamine], the inhibition at 110 µM under setting [1] was found to be 0% and the inhibition at 110 µM under setting [2] came out at 4%.

With `O=c1c(O)cc([C@H]2Oc3cc(O)cc(O)c3C[C@H]2O)cc2c([C@H]3Oc4cc(O)cc(O)c4C[C@H]3O)cc(O)c(O)c12` [Theaflavin], the inhibition at 110 µM is, setting by setting: under setting [1], 11%; under setting [2], 5%.

Consider `C[C@H]1C(=O)O[C@@H]2CC[N+]3([O-])CC=C(COC(=O)[C@](C)(O)[C@]1(C)O)[C@H]23` (stereo partly shown) [Monocrotaline N‐Oxide], for which the inhibition at 110 µM stood at 0% under setting [1] and 0% under setting [2].

`COc1cc(-c2coc3cc(O)c(OC)c(O)c3c2=O)cc(O)c1OC` [Irigenin]: the inhibition at 110 µM by setting is: under setting [1], 14%; under setting [2], 3%.

`CC(C)(C)NCC(O)c1cc(O)cc(O)c1` (stereo not shown) [Terbutaline]: the inhibition at 110 µM was determined as 9% under setting [1] and 2% under setting [2].

With `COc1ccccc1O` [Guaiacol], the inhibition at 110 µM came out at 6% under setting [1] and 10% under setting [2].

As to `NC(=O)c1cnccn1` [Pyrazinamide], the inhibition at 110 µM by setting is: under setting [1], 4%; under setting [2], 13%.

With `Nc1ncnc2c1ccn2[C@@H]1O[C@H](CO)[C@@H](O)[C@H]1O` [Tubercidin], the inhibition at 110 µM is, setting by setting: under setting [1], 5%; under setting [2], 0%.

On to `CO[C@H]1C(=O)[C@]2(C)[C@@H](OC)C[C@H]3OC[C@@]3(OC(C)=O)[C@H]2[C@H](OC(=O)c2ccccc2)[C@]2(O)C[C@H](OC(=O)[C@H](O)[C@@H](NC(=O)OC(C)(C)C)c3ccccc3)C(C)=C1C2(C)C` [Cabazitaxel], for which the inhibition at 110 µM was found to be 3% under setting [1] and 9% under setting [2].

Take `C=C[C@@]1(C)CC[C@H]2C(=CC[C@@H]3[C@]2(C)CCC[C@@]3(C)C(=O)O)C1` [Isopimaric acid]: the inhibition at 110 µM under setting [3] stood at 0% and the inhibition at 110 µM under setting [4] came to 14%.

With `COc1ccc(CCC(=O)c2c(O)cc(O[C@@H]3O[C@H](CO)[C@@H](O)[C@H](O)[C@H]3O[C@@H]3O[C@@H](C)[C@H](O)[C@@H](O)[C@H]3O)cc2O)cc1O` [Neohesperidin dihydrochalcone], the inhibition at 110 µM runs as follows: under setting [1], 10%; under setting [2], 2%.

`C=C1CCC2CC1C2(C)C` (stereo not drawn) [β-Pinene]: the inhibition at 110 µM reads like this: under setting [1], 2%; under setting [2], 12%.

In the case of `Oc1cc(O)c2c(c1)O[C@H](c1ccc(O)c(O)c1)[C@H](O)[C@H]2c1c(O)cc(O)c2c1O[C@H](c1ccc(O)c(O)c1)[C@H](O)C2` [Procyanidin B2], the inhibition at 110 µM came out at 14% under setting [1] and 27% under setting [2].

`O=C(O)CCCc1c[nH]c2ccccc12` [Indole‐3‐butyric acid]: the inhibition at 110 µM is 2% under setting [1] and 0% under setting [2].

For the compound `CC[C@@H](C(=O)[C@@H](C)[C@@H](O)[C@H](C)CCc1ccc(C)c(O)c1C(=O)O)[C@H]1O[C@](CC)([C@H]2CC[C@](O)(CC)[C@H](C)O2)C[C@@H]1C` [Lasalocid], the inhibition at 110 µM by setting is: under setting [1], 23%; under setting [2], 21%.

As for `CC(=O)NS(=O)(=O)c1ccc(NC(=O)c2ccccc2C(=O)O)cc1` [Phthalylsulfacetamide], the inhibition at 110 µM was determined as 32% under setting [1] and 2% under setting [2].

In the case of `CC(CC(=O)C[C@@H](C)[C@H]1CC(=O)[C@@]2(C)C3=C(C(=O)[C@@H](O)[C@]12C)[C@@]1(C)CC[C@H](O)C(C)(C)[C@@H]1C[C@@H]3O)C(=O)O` (stereo partly shown) [Ganoderic acid G], the inhibition at 110 µM is, setting by setting: under setting [1], 0%; under setting [2], 3%.

With `CC(C)(C)[C@]1(O)CC2OC(=O)CC23C(=O)OC2OC(=O)[C@H](O)C231` (stereo partly shown) [Bilobalide], the inhibition at 110 µM is 0% under setting [1] and 23% under setting [2].

As to `COc1cc(C(=O)O[C@H]2[C@@H]3C=CO[C@@H](O[C@@H]4O[C@H](CO)[C@@H](O)[C@H](O)[C@H]4O)[C@@H]3[C@@]3(CO)O[C@@H]23)ccc1O` [Picroside II], the inhibition at 110 µM is, setting by setting: under setting [1], 0%; under setting [2], 13%.

For the compound `CC[C@@]1(O)C(=O)OCc2c1cc1n(c2=O)Cc2cc3cc(O)ccc3nc2-1` [(S)‐10‐Hydroxycamptothecin], the inhibition at 110 µM reads like this: under setting [1], 0%; under setting [2], 0%.

For `CN(C)Cc1c[nH]c2ccccc12` [Gramine], the inhibition at 110 µM was found to be 0% under setting [1] and 0% under setting [2].

For the compound `CCc1cc(C(N)=S)ccn1` [Ethionamide], the inhibition at 110 µM reads like this: under setting [1], 64%; under setting [2], 12%.

Turning to `COc1ccc(-c2oc3cc(OC)c(OC)c(O)c3c(=O)c2OC)cc1O` [Casticin], the inhibition at 110 µM runs as follows: under setting [3], 9%; under setting [4], 0%.

For the compound `COC(=O)c1cccnc1` [Methyl nicotinate], the inhibition at 110 µM was determined as 0% under setting [3] and 0% under setting [4].

On to `C[C@@H]1O[C@@H](O[C@H]2[C@H](O[C@H]3CC[C@]4(C)[C@H]5CC=C6[C@@H]7CC(C)(C)CC[C@]7(C(=O)O)CC[C@@]6(C)[C@]5(C)CC[C@H]4C3(C)C)OC[C@H](O[C@@H]3O[C@H](CO)[C@@H](O)[C@H](O)[C@H]3O)[C@@H]2O)[C@H](O)[C@H](O)[C@H]1O` [Hederacolchiside A1], for which the inhibition at 110 µM stood at 0% under setting [1] and 0% under setting [2].

In the case of `C[C@H]1[C@H](C)CC[C@]2(C(=O)O)CC[C@]3(C)C(=CC[C@@H]4[C@@]5(C)C[C@@H](O)[C@H](O)[C@@](C)(CO)[C@@H]5CC[C@]43C)[C@H]12` [Asiatic acid], the inhibition at 110 µM reads like this: under setting [1], 41%; under setting [2], 55%.

With `C=C(C)[C@@H]1CC[C@]2(C)CC[C@]3(C)[C@H](CC[C@@H]4[C@@]5(C)CCC(=O)C(C)(C)[C@@H]5CC[C@]43C)[C@@H]12` [Lupenone], the inhibition at 110 µM by setting is: under setting [1], 25%; under setting [2], 17%.

For the compound `CC1=CC(=O)CC(C)(C)[C@@]1(O)/C=C/C(C)=C\C(=O)O` [Abscisic acid], the inhibition at 110 µM reads like this: under setting [1], 0%; under setting [2], 11%.

Regarding `O=C(Nc1ccccc1F)N[C@H]1N=C(c2ccccc2)c2ccccc2NC1=O` [RSV604], the inhibition at 110 µM runs as follows: under setting [1], 37%; under setting [2], 15%.
